According to article PMC7047268 (ACS Central Science, 2020):

Key:
5-HT2C [1] = molecular target: T1, 5-HT2C (Homo sapiens, UniProt P28335); assay: cell-based; type: cell-based
T1 sequence (P28335 33-458): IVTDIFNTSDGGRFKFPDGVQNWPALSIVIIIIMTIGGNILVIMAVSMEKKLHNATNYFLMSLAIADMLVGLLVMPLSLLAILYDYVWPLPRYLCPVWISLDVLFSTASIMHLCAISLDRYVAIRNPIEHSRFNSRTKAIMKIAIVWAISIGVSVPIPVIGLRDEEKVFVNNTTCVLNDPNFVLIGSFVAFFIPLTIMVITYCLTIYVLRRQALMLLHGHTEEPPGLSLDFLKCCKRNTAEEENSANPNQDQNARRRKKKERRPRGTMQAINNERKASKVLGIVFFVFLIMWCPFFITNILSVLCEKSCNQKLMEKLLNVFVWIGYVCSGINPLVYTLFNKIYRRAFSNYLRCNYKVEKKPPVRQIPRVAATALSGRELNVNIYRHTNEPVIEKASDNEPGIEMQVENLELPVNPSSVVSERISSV

5-HT2B = 5-HT2B (Homo sapiens, UniProt P41595); assay: cell-based; type: cell-based; conditions: for Gq agonism for 5-HT2B: agonist mode
5-HT2B, sequence (P41595 whole entry): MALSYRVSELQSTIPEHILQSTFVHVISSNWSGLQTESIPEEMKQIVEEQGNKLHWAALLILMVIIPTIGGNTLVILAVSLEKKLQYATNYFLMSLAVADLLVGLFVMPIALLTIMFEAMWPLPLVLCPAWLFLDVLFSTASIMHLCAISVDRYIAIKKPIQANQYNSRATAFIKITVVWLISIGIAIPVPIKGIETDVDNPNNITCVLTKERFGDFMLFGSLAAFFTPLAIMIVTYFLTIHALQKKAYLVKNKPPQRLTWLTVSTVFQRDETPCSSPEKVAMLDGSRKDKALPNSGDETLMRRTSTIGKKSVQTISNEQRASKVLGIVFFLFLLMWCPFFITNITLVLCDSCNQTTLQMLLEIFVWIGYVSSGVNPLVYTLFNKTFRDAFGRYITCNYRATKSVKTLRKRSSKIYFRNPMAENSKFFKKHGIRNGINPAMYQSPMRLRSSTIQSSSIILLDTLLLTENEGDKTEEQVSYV

5-HT2A = 5-HT2A (Homo sapiens, UniProt P28223); type: cell-based; conditions: for Gq agonism for 5-HT2A: agonist mode
5-HT2A, sequence (P28223 whole entry): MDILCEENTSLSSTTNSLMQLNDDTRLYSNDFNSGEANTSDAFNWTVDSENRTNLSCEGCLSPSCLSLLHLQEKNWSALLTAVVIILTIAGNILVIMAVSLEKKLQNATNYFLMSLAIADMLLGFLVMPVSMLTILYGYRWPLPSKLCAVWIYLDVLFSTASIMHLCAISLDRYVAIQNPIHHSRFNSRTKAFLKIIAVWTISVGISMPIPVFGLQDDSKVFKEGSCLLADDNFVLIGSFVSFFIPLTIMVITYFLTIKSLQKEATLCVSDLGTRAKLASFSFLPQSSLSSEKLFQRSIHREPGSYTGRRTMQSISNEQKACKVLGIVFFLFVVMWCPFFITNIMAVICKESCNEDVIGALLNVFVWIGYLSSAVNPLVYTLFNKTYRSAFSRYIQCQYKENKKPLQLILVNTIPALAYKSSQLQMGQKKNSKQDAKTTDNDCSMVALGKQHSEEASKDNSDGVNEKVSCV

[2] = molecular target: T2, human 5-HT2C and its mutants (Homo sapiens, UniProt P28335); assay: Tango β-arrestin2 recruitment assay, HTLA cells; type: cell-based; conditions: for β-arrestin2 recruitment agonist activity (Tango): wild-type 5-HT2C, agonist mode
T2 sequence (P28335 33-458): T1 sequence (P28335 33-458)

[3] = test system: overnight fasting male C57BL/6J mice; assay: Acute feeding suppression; type: in vivo; conditions: intraperitoneal; 1857 30 mg/kg, lorcaserin 10 mg/kg; vs vehicle
[4] = test system: wild-type or mutant 5-HT2C; assay: Radiolabeled ligand binding assay, 3H-mesulergine, transfected CHO cells; set-up: species or system human
5-HT2C [5] = molecular target: T1, 5-HT2C; type: cell-based
[6] = test system: diet-induced obesity (DIO) mice; assay: DIO mice feeding suppression; type: in vivo
[7] = 30 mg/kg i.p. daily for 10 days
[8] = 30 mg/kg i.p. daily for 10 days, vs vehicle
[9] = 30 mg/kg i.p. daily, from day 5 until end of study

Question: How did the EC50 (5-HT2C [1]) turn out when COc1cc2c3c(c1OC)-c1ccccc1CC3NCC2 (centres unmarked) [Compound 15781, nornuciferine] was run?
Answer: The EC50 was 653 nM.

Question: What about the Emax (5-HT2C [1]; HEK-293T, read-out: Emax relative to 5-HT) of the same molecule?
Answer: Its Emax is 65.6%.

Question: And the IC50 (5-HT2B)?
Answer: The IC50 was > 10 µM.

Question: What about the “Gq agonism for 5-HT2B” value (5-HT2B) of the same molecule?
Answer: Its value is “none of them exhibited measurable Gq agonism”.

Question: And the “Gq agonism for 5-HT2A” value (5-HT2A)?
Answer: The value was “none of them exhibited measurable Gq agonism”.

Question: For C[C@H]1CNCCc2ccc(Cl)cc21 [Lorcaserin, lorcaserin, reference compound], which “agonist efficacy class in G protein pathway at 5-HT2C” value (5-HT2C [1]) is on record?
Answer: The value was “full agonist”.

Question: What about the “β-arrestin2 recruitment agonist activity (Tango)” value [2] of the same molecule?
Answer: The value was “full agonist”.

Question: What about the “acute food intake suppression” value [3] of the same molecule?
Answer: Its value is “suppressed food intake up to 2 h postinjection”.

Question: COc1cc2c3c(c1OC)-c1ccccc1C[C@H]3N(C)CC2 [Compound 15856, Nuciferine] was tested. Which “antagonism of Gq-mediated activity at 5-HT2C” value (5-HT2C [1]) did it give?
Answer: The value was “sub-micromolar potency”.

Question: What about the “antagonism of Gq-mediated activity at 5-HT2B” value (5-HT2B) of the same molecule?
Answer: The value was “sub-micromolar potency”.

Question: What about the “antagonism of Gq-mediated activity at 5-HT2A” value (5-HT2A) of the same molecule?
Answer: The value was “sub-micromolar potency”.

Question: Which “in vitro potency for 5-HT2C activation lower than that of lorcaserin” value (5-HT2C [1]) does the source give for (R)-asimilobine [Compound 1857] here?
Answer: Its value is 2 orders of magnitude.

Question: And the “Emax relative to 5-HT” value (5-HT2C [1]; Gq-mediated calcium signaling at 5-HT2C)?
Answer: The value was 86.1%.

Question: And the “Gq agonism for 5-HT2B” value (5-HT2B)?
Answer: The value was “none of them exhibited measurable Gq agonism”.

Question: And the “Gq agonism for 5-HT2A” value (5-HT2A)?
Answer: Its value is “none of them exhibited measurable Gq agonism”.

Question: What about the enhancement of binding [4] of the same molecule?
Answer: Its enhancement of binding is 6 fold.

Question: And the “antagonism of β-arrestin signaling (Tango)” value ([2]; against agonist ergotamine)?
Answer: The value was “acts as an antagonist”.

Question: And the “β-arrestin2 recruitment agonist activity (Tango)” value [2]?
Answer: The value was “no β-arrestin recruitment activity”.

Question: And the “β-arrestin2 recruitment agonist activity (BRET)” value (5-HT2C [5])?
Answer: Its value is “does not possess agonist activity”.

Question: And the “antagonism of β-arrestin2 association (BRET)” value (5-HT2C [5]; agonist lorcaserin (4 μM))?
Answer: Its value is “acts as an antagonist for β-arrestin2 association”.

Question: What about the “acute food intake suppression” value [3] of the same molecule?
Answer: Its value is “reduced food intake from 30 min to 4 h postinjection”.

Question: What about the “blood glucose relative to vehicle” value [6, 7] of the same molecule?
Answer: Its value is −20.9%.

Question: And the “liver TC and TG levels” value [6, 7]?
Answer: The value was “decreased liver TC and TG levels”.

Question: What about the “serum total cholesterol (TC) relative to vehicle” value [6, 7] of the same molecule?
Answer: Its value is −7.9%.

Question: And the “serum total triglyceride (TG) relative to vehicle” value [6, 7]?
Answer: The value was “unchanged”.

Question: And the “total organ weight of epididymal white adipose tissue (WAT)” value [6, 8]?
Answer: Its value is −29.3%.

Question: And the “total organ weight of inguinal WAT” value [6, 8]?
Answer: The value was −46.4%.

Question: What about the “body weight in DIO mice” value [6, 9] of the same molecule?
Answer: The value was “weight loss”.

Question: And the “food intake in DIO mice” value [6, 9]?
Answer: The value was “Significant reduction of food intake”.
